Experimental data: patent US11324832B2, “Tripartite modulators of endosomal G protein-coupled receptors” (Endosome Therapeutics, Inc., priority 2015, dated 2022)
Where a SMILES comes first, the peptide text is derived from it. [ ]: non-standard residue; d: D form. The star is where a group is joined. X1 = CC(C)CCC[C@@H](C)[C@H]1CC[C@H]2[C@@H]3CC[C@H]4C[C@@H](O*)CC[C@]4(C)[C@H]3CC[C@]12C; PEG4 = NCCOCCOCCOCCOCCC(=O)O; PEG3 = NCCOCCOCCOCCC(=O)O

How the values were obtained:
β2-adrenergic receptor = biological target: T1, β2-adrenergic receptor (Homo sapiens, UniProt P07550); assay: FRET nuclear ERK biosensor, isoprenaline-induced activation in HEK293 cells; format: cell-based; details: selectivity control, endogenous receptor
T1 construct: endogenous in cells; host or cells: HEK293
T1 sequence (P07550 whole entry): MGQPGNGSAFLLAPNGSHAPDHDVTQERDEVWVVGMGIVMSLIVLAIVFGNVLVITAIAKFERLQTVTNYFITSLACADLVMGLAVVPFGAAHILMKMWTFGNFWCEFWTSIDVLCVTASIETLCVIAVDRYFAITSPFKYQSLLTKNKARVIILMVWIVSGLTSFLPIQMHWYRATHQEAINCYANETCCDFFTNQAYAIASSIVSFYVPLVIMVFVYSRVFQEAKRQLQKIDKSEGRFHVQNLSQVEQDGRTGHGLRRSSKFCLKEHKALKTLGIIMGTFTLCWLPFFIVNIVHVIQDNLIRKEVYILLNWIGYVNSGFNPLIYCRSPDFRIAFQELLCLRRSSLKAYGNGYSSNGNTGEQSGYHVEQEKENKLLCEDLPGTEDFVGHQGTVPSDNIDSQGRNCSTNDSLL
Protocol: (§1) HEK293 cells were transfected with 55 ng/well rat NK1R with N-terminal HA. 11 epitope tag (HA-NK1R) or CLR plus RAMP1 and 40 ng/well FRET biosensors. FRET was assessed 48 h after transfection, following serum restriction (0.5% FBS overnight). For experiments using clathrin or dynamin siRNA, cells were transfected with 55 ng/well rat HA-NK1R, 40 ng/well FRET biosensor and 25 nM/well scrambled, clathrin or dynamin ON-TARGETplus SMARTpool siRNA (GE Dharmacon). FRET was assessed 72 h after transfection, following serum restriction (0.5% FBS overnight). Cells were equilibrated in HBSS at 37° C. and FRET was analyzed using a GE Healthcare INCell 2000 Analyzer. For GFP/RFP emission ratio analysis, cells were sequentially excited using a FITC filter (490/20) with emission measured using dsRed (605/52) and FITC (525/36) filters, and a polychroic optimized for the FITC/dsRed filter pair (Quad4). For CFP/YFP emission ratio analysis, cells were sequentially excited using a CFP filter (430/24) with emission measured using YFP (535/30) and CFP (470/24) filters, and a polychroic optimized for the CFP/YFP filter pair (Quad3). Cells were imaged every 1 min, allowing image capture of 14 wells per minute. Baseline emission ratio images were captured for 4 min. […] Data were analyzed as described and expressed as emission ratios relative to baseline for each cell (F/F0). […]

NK1R [1] = biological target: T2, NK1R (Rattus norvegicus, UniProt P14600); assay: SP-stimulated Ca2+ signaling in HEK-NK1R cells, antagonist mode; format: cell-based; set-up: Full length and truncated 6312 rat HA-NK1R have been described; expressed in transfected cells; host or cells: HEK293 (transient); details: SP 3 nM (EC80), HEK-NK1R cells, 30 min pre-incubation; read-out: pIC50, antagonism of SP-stimulated Ca^2+ signaling (converted)
T2 sequence (P14600 whole entry, the tested form may be a part): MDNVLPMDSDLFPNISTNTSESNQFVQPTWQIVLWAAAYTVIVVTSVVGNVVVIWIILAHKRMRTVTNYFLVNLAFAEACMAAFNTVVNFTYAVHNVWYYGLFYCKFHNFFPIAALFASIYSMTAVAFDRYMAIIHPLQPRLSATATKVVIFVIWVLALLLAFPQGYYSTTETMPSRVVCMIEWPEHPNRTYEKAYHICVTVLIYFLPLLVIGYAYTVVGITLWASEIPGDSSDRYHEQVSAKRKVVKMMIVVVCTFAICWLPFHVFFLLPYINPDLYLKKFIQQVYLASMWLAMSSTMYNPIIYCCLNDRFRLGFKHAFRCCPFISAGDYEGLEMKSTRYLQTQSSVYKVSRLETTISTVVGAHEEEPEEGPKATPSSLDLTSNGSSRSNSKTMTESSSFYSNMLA
Protocol: [Ca^2+]i was measured as described (Jensen, D. D. et al., J Biol Chem, 2014, 289, 20283-20294). HEK293 cells transiently expressing HA-NK1R or HA-CLR/Myc-RAMP1 were loaded with Fura2-AM (2 μM).

CLR plus RAMP1 = biological target: T3, CLR plus RAMP1 (Homo sapiens, UniProt O60894+Q16602); assay: FRET ERK biosensors in HEK293 cells expressing CLR plus RAMP1; format: cell-based; details: endocytic inhibitor plus CGRP
T3 construct: expressed in transfected cells; host or cells: HEK293 (transient)
T3 sequence (Q16602 23-461): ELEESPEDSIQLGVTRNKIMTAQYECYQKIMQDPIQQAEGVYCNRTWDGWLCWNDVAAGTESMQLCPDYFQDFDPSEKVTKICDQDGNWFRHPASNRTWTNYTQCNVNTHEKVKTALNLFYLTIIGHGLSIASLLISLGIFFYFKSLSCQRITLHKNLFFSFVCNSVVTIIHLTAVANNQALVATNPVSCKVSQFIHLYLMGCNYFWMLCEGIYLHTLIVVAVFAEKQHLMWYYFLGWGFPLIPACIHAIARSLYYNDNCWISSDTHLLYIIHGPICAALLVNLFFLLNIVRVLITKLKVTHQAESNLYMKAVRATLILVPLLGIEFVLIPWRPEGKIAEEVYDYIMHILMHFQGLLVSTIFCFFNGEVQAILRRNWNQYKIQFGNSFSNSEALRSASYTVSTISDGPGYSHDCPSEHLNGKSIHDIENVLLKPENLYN
T3 sequence (O60894 27-148): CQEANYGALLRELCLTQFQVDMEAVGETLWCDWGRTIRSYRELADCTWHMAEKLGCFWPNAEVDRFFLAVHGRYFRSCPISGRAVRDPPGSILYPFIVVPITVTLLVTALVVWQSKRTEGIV
Protocol: as §1

NK1R [2] = biological target: T2, NK1R; assay: NK1R endocytosis in rat spinal cord slices; format: cell-based; details: Dy4 30 μM; SP 1 μM, 5 min
[3] = system: capsaicin-evoked mechanical hyperalgesia in mice; details: mouse, in vivo
Protocol: To evaluate the importance of NK1R, clathrin and dynamin, mice (C57BL/6, male, 6-10 weeks) were injected intrathecally (L3/L4) with vehicle, NK1R antagonist SR140,333, Dy4, Dy4 inact, PS2 or PS2 inact. After 30 min, intraplantar injections of vehicle or capsaicin were made into the left hindpaw. Mechanical hyperalgesia was measured by stimulation of the plantar surface of the left and right paws with von Frey filaments, and inflammatory edema was assessed by measuring left paw thickness with calipers.
Mice were acclimatized to the experimental apparatus and environment for 1-2 h on 2 successive days before experiments. Mechanical hyperalgesia was assessed by paw withdrawal to stimulation of the plantar surface of the hind-paw with graded von Frey filaments. On the day before the study, von Frey scores were measured in triplicate to establish a baseline for each animal. To assess edema of the paw, hindpaw thickness was measured using digital calipers before and after treatments. […] Capsaicin (5 μg), Complete Freund's Adjuvant (CFA, 2 mg/ml), or vehicle (capsaicin, 20% ethanol, 10% Tween 80, 70% saline; CFA, saline) was injected subcutaneously into the plantar surface of the left hindpaw (10 μl). von Frey scores (left and right paws) and paw thickness (left paw) were measured for 30-240 min after capsaicin, and 36-40 h after injection of CFA. […]

[4] = Solubility in low DMSO for electrophysiology; format: physicochemical; details: low concentrations of DMSO required for electrophysiology
Protocol: Slices of rat spinal cord were transferred to a recording chamber and superfused with normal ACSF (2 ml·min^−1, 36° C.). […] PS2 was not soluble in the low concentrations of DMSO required for electrophysiology. Large, NKiR-positive, presumed nociceptive lamina I neurons were visually identified as described (Imlach, W. L., et al., Molecular Pharmacology, 2015, 88, 460-428). Spontaneous currents were recorded in cell-attached configuration (Multiclamp 700B, Molecular Devices, Sunnyvale, Calif.), sampled at 10 kHz, high pass filtered at 1 Hz, and capacitatively coupled action potential events were analyzed using Axograph X, V 1.4.4 (Axograph). […] Recordings were sampled at 10 kHz and filtered with a high pass filter at 1 Hz and firing rate was measured in two-minute interval bins. […] The firing time was determined as the duration of the response to last action potential. To assess synaptic transmission, whole-cell configuration recordings were made under control conditions or after exposure to Dy4 or Dy4 inact; a bipolar stimulating electrode was placed at the dorsal root entry zone, and electrically-evoked excitatory postsynaptic currents recorded as described (Imlach, W. L., et al., Molecular Pharmacology, 2015, 88, 460-428).

CC(=O)N[C@@H](CC(=O)O[C@H]1CC[C@@]2(C)[C@@H](CC[C@@H]3[C@@H]2CC[C@]2(C)[C@@H]([C@H](C)CCCC(C)C)CC[C@@H]32)C1)C(=O)NCCOCCOCCOCCOCCC(=O)NCCOCCOCCOCCC(=O)NCCOCCOCCOCCOCCC(=O)N[C@H](CCCNC(=N)N)C(=O)N1CCC[C@H]1C(=O)N[C@@H](CCCCN)C(=O)N1CCC[C@H]1C(=O)N[C@@H](CCC(N)=O)C(=O)N[C@@H](CCC(N)=O)C(=O)N[C@H](Cc1c[nH]c2ccccc12)C(=O)N[C@@H](Cc1ccccc1)C(=O)N[C@H](Cc1c[nH]c2ccccc12)C(=O)N[C@@H](CC(C)C)C(=O)N[C@@H](CC(C)C)C(N)=O [Compound 1] (Ac-D(X1)[PEG4][PEG3][PEG4][dR]PKPQQ[dW]F[dW]LL-NH2)
effect on isoprenaline-induced activation of nuclear ERK (β2-adrenergic receptor): did not affect | IC50 (NK1R [1]): 3.63 nM

O=C(N/N=C/c1cc(O)c(O)cc1O)c1cc2ccccc2cc1O [Dy4]
effect on CGRP activation of cytosolic ERK (CLR plus RAMP1): prevented activation of nuclear but not cytosolic ERK | effect on CGRP activation of nuclear ERK (CLR plus RAMP1): prevented activation of nuclear but not cytosolic ERK | effect on SP-stimulated NK1R endocytosis in spinal cord slices (NK1R [2]): prevented | effect on paw withdrawal responses of the uninjected right hind paw [3]: did not affect

O=C1NC(=NS(=O)(=O)c2cccc3ccccc23)S/C1=C\c1ccc(Br)cc1 [PS2]
solubility [4]: not soluble
